Measured values as given in the NIST ThermoML archive (doi:10.1016/j.jct.2016.10.009).
Numbers after ± are expanded uncertainties.

Assay: xn = mol fraction of the nth substance listed
Conditions: Liquid, Vibrating tube method, x1 = 1

CCC(C)O (centres undefined) [butan-2-ol] + CC(C)OC(C)C
mass density [kg/m3]
Conditions | 293.15 K | 298.15 K | 313.15 K | 333.15 K
100 kPa | 806.7 ± 0.7 | 802.6 ± 0.7 | 789.6 ± 0.7 | 770.8 ± 0.7
1000 kPa | 807.4 ± 0.7 | 803.3 ± 0.7 | 790.3 ± 0.7 | 771.8 ± 0.7
5000 kPa | 810.4 ± 0.7 | 806.4 ± 0.7 | 793.7 ± 0.7 | 775.7 ± 0.7
10000 kPa | 814 ± 0.7 | 810.1 ± 0.7 | 797.8 ± 0.7 | 780.3 ± 0.7
15000 kPa | 817.4 ± 0.7 | 813.7 ± 0.7 | 801.6 ± 0.7 | 784.7 ± 0.7
20000 kPa | 820.7 ± 0.7 | 817 ± 0.7 | 805.3 ± 0.8 | 788.9 ± 0.8
25000 kPa | 823.9 ± 0.8 | 820.2 ± 0.8 | 808.6 ± 0.8 | 792.7 ± 0.8
30000 kPa | 826.9 ± 0.8 | 823.4 ± 0.8 | 812.1 ± 0.8 | 796.4 ± 0.8
35000 kPa | 829.8 ± 0.8 | 826.4 ± 0.8 | 815.3 ± 0.8 | 800 ± 0.8
40000 kPa | 832.7 ± 0.8 | 829.2 ± 0.8 | 818.4 ± 0.8 | 803.5 ± 0.8
45000 kPa | 835.4 ± 0.8 | 832 ± 0.8 | 821.3 ± 0.8 | –
50000 kPa | 838.1 ± 0.8 | 834.7 ± 0.8 | 824.3 ± 0.8 | –
55000 kPa | 840.6 ± 0.8 | 837.4 ± 0.8 | 827.1 ± 0.8 | –
60000 kPa | 843.2 ± 0.8 | 839.9 ± 0.8 | 829.8 ± 0.9 | –
65000 kPa | 845.6 ± 0.8 | 842.4 ± 0.8 | 832.5 ± 0.9 | –
70000 kPa | 848 ± 0.9 | 844.8 ± 0.9 | 835 ± 0.9 | –
80000 kPa | 852.6 ± 0.9 | 849.5 ± 0.9 | 839.9 ± 0.9 | –
90000 kPa | 857.1 ± 0.9 | 854.1 ± 0.9 | 844.7 ± 0.9 | –
100000 kPa | 861.2 ± 0.9 | 858.3 ± 0.9 | 849.1 ± 1 | –
110000 kPa | 865.3 ± 0.9 | 862.4 ± 1 | 853.5 ± 1 | –
120000 kPa | 869.2 ± 1 | 866.3 ± 1 | 857.6 ± 1 | –
130000 kPa | 873 ± 1 | 870.1 ± 1 | 861.5 ± 1 | –
140000 kPa | 876.6 ± 1 | 873.9 ± 1 | 865.4 ± 1 | –
